Like-named read-outs stand apart in the source and are kept apart here.
Columns and labels:
MFP-regulated promoter = assay: MFP dependent induction of IFN-α from AAV-infected MSC (ELISA); type: cell-based, human; details: MSC infected with MFP regulated AAV
Description: Regulated expression from a drug inducible AAV vector. An AAV construct was used that expressed IFN-α under the control of a MFP-regulated promoter, to infect normal donor MSC in vitro. Briefly, MSC were infected with 10^3 GE of AAV-IFN-α and 10^3 GE of AAV-gal4prlMFP, and expanded for 10 additional days. These cells were subcultured into 12 well dished were MFP (dissolved in 0.1% ETOH) or solvent carrier was added at the concentrations noted. MSC infected w/ the MFP regulated AAV, express IFN-α only after 18 h exposure to MFP (FIG. 4A). Three drug concentrations were tested, each dose was 10-fold less than the previous one, and with the initial dose of 10^−7 M being 3 logs less than the dose commonly given for chemical abortions in humans. Of note is that a one-time addition of MFP results in a prolonged 8-10 day expression of IFN-α, peaking at 4-5 days after drug addition. […] Ten days after IFN-α level reached background activity we waited 3 additional days and added another dose of 10^-8 M MFP. […]
Exemplary methods for harvesting, culture, and infection of MSC. […] Forty-eight hours later cells are analyzed for βgal expression using X-gal histochemical staining or analysis with FACS utilizing CM-FDG, as in Marini et al. (1999). […] Six to 24 h later, supernatant is collected and analyzed via Quantikine IFN-α ELISA (Biosource International Inc Camarillio Calif.).

[1] = Systemic expression of IFN-α after intramuscular injection of AAV in mice (ELISA); type: in vivo, mouse; details: one application of MFP given IP, mice injected with inducible AAVs
Description: In vivo testing. To initiate a in vivo culture model of CML, two BCR-ABL+ cell lines, the K562 (which grow extramedullary in nu/nu mice) or BV173 (which grows intra bone marrow in BalbC/nu mice) were injected into respective mice. […] Utilizing the BV173 cell line we tested three cell doses and found one million BV173 cells were sufficient to kill the mice within 45 days, whereas 5×10^5 BV173 cells allowed the mice to survive for 60+ days with one mice still surviving. […] As an alternative to using MSCs as a cell based therapy, the AAV vectors may be directly inject into the muscle, thereby allowing secretion of IFN-α systemically. Evaluation of this route of delivery was performed by an intramuscular injection of […] AAV-CMV-IFN-α or 5×10^10 GE of AAV-Gal4hPRL-65AD and 5×10^10 GE of AAV-G5E-IFN-α into the quadriceps of mice. Mice were bled weekly and the serum was analyzed for IFN-α expression using the Biosource ELISA kit. As shown in FIG. 9 circulating levels of hIFN-α was detected in the peripheral blood, and more importantly, it was identified over the high background level seen in these nu/nu animals. […] Using this mouse model circulating levels of human IFN-α were detected. Human MSC may also be detected using molecular, fluorescent, and immunohistochemical approaches.

KBM5 cells = assay: Growth inhibition of KBM5 cells by STI and IFN-α; type: cell-based; details: ST1571 0.5, 1.0, 2.0 tmol; IFNα 2,000, 5,000, 10,000 U
Excerpt: (§1) The effects of IFNA and ST1571 on STI-resistant KBM5 cells were studied.

KBM5-STI cells = assay: Growth inhibition of STI-resistant KBM5 cells by STI and IFN-α; type: cell-based; details: for Growth inhibition of KBM5-STI cells: ST1571 0.5, 1.0, 2.0 tmol, IFNα 2,000, 5,000, 10,000 U
Excerpt: as §1

CML = details: cited from earlier work
melanoma = details: cited from earlier work
MSC = assay: Effect of MDA7 on growth of the MSC; type: cell-based; details: MSC growth not affected
Description: MSC were infected with a β-gal MDA7 adenovirus provided by Dr. Sunil Chada (Introgen, Houston, Tex.) at 50, 500, 5,000, and 25,000 MOI. All experiments were performed in duplicate supernatant from control and MDA7-MSC was obtained and added to KBM5 and KBM5-STI cells and assayed at 24 and 72 hours. Co-cultures of β-gal MDA7-MSC and control MSC with KBM5 (STI-sensitive) and KBM5-STI (STI-resistant) cells were also performed, with the MSC growing to near-confluency and 0.125×10^6 cells/mL plated on the MSC in 12 well plates. All wells were assayed at 24 and 72 hours.

[2] = patients with chronic phase CML

## CC#C[C@]1(O)CC[C@H]2[C@@H]3CCC4=CC(=O)CCC4=C3[C@@H](c3ccc(N(C)C)cc3)C[C@@]21C [MFP, mifpristone]
MFP-regulated promoter
  Time of peak IFN-α expression after drug addition: 4 to 5 days
MFP-regulated promoter; 18 h exposure
  Duration of IFN-α expression after a one-time addition of MFP: 8 to 10 days
[1]
  Period over which the single peak of IFN-α activity decays: 7 days

## Cc1ccc(NC(=O)c2ccc(CN3CCN(C)CC3)cc2)cc1Nc1nccc(-c2cccnc2)n1 [ST1571]
KBM5 cells
  Growth inhibition of KBM5 cells: highly sensitive
KBM5-STI cells
  Growth inhibition of KBM5-STI cells: resistant
CML; [2]
  Complete cytogenetic remissions: 95%
  Hematological remission: > 90%
  RT-PCR negativity: 8%

## IFNα
KBM5 cells
  Growth inhibition of KBM5 cells: pronounced growth inhibitory effects
KBM5-STI cells
  Growth inhibition of KBM5-STI cells: but not on KBM5-STI cells
KBM5-STI cells; in vitro, KBM5 and KBM5-STI cells
  Enhancement of the STI effect by IFNα: did not enhance the STI effect
CML; CML patients at 5 years
  CCR's lost: 42%
CML; CML patients at 8 years
  CCR's lost: 50%
CML; patients who received INFα for CML
  Patients able to maintain high concentrations: less than 30%
melanoma; advanced melanoma
  Overall response rate: 20%
melanoma; high risk melanoma
  Improvement in the fraction of patients who are disease-free: 42%

B1: MDA7: melanoma differentiation associated protein 7, classified as interleukin-24 (protein, UniProt Q13007 52-206, looked up)
Interleukin-24: QEFHFGPCQVKGVVPQKLWEAFWAVKDTMQAQDNITSARLLQQEVLQNVSDAESCYLVHTLLEFYLKTVFKNYHNRTVEVRTLKSFSTLANNFVLIVSQLQPSQENEMFSIRDSAHRRFLLFRRAFKQLDVEAALTKALGEVDILLTWMQKFYKL
MSC
  Toxic effects on MSC: no toxic effects

— patent publication US20040076622A1, “Local production and/or delivery of anti-cancer agents by stromal cell precursors” (Board of Regents, The University of Texas System, priority 2002, published 2004)
